Test results as given in patent publication US11331282B2, “Ophthalmic composition containing clathrated antioxidant substance, and use thereof” (TK Health Research, Co. Ltd., priority 2017, dated 2022).

How the values were obtained:
[1] = tested on: ocular surface goblet cells of a dry eye mouse model; test: Goblet cell count by PAS stain in BAC dry eye mouse model; format: in vivo; details: oral administration for two weeks
Method: To find the effect of astaxanthin eye drops on ocular surface goblet cells of a dry eye mouse model, histological analysis was performed after two weeks of astaxanthin eye drops, and the number of goblet cells was counted by counting the cells stained red by PAS stain.
A dry eye mouse model was created in the same manner described in Example 1. Subsequently, astaxanthin eye drops were applied and astaxanthin was orally administered (oral intake astaxanthin, also denoted as oAsx) for two weeks. The change in tear volume was measured by Schirmer's test in the same manner as Example 1. The goblet cells were also counted in the same manner as Example 1.
A dry eye mouse model was created in the same manner as Example 1. Subsequently, water-soluble astaxanthin eye drops and DMSO dissolved astaxanthin eye drops were applied for two weeks, and the change in the tear volume was measured by Schirmer's test in the same manner as Example 1. The goblet cells were also counted in the same manner as Example 1.
A change in the tear volume in the mouse model is measured by Schirmer's test. The tear volume is determined as a relative tear volume (normal tear volume (filter moving distance): 7.17±1.35 mm) when normal tear volume is 100. Statistical processing: ANOVA, Student's t-test. […]

dry eye mouse model = test: Change in tear volume by Schirmer's test in BAC dry eye mouse model; format: in vivo; details: oral intake 200 mg/kg, two weeks, Day 28, Example 2
Method: A dry eye mouse model was created by eye drop treatment with benzalkonium chloride (also denoted as BAC).
After two weeks of continuous BAC treatment of mice, additional BAC treatment and eye drop treatment with water soluble astaxanthin or water soluble control (vehicle, γ-cyclodextrin only) were continued for two weeks. A group of mice applied with only PBS eye drops was used as a […].
The change in the tear volume in the mouse model was measured by Schirmer's test. The tear volume was determined as a relative tear volume (normal tear volume (filter moving distance): 7.17±1.35 mm) when normal tear volume was 100. Statistical processing: ANOVA, Student's t-test.
A dry eye mouse model was created in the same manner described in Example 1. […] The change in tear volume was measured by Schirmer's test in the same manner as Example 1. The goblet cells were also counted in the same manner as Example 1.
A dry eye mouse model was created in the same manner as Example 1. Subsequently, water-soluble astaxanthin eye drops and DMSO dissolved astaxanthin eye drops were applied for two weeks, and the change in the tear volume was measured by Schirmer's test in the same manner as Example 1. The goblet cells were also counted in the same manner as Example 1. […]
A change in the tear volume in the mouse model is measured by Schirmer's test. […]

[2] = Solubilization testing by filtration (colour of filtrate, 0.45 μm filter); format: physicochemical
Method: The astaxanthin concentration in the filtrate can be measured by measuring the absorbance of the wavelength 478 nm using an absorption (spectrophoto)meter. […] Astaxanthin was dissolved in DMSO, and the final concentration was adjusted to 6.25, 12.5, 25, 50, and 100 μg/ml with Milli-Q water. After 0 point correction with a solvent, 480 nm absorbance of each astaxanthin solution was measured, and calibration curves were drawn. The concentration of water soluble astaxanthin solution was found from the 480 nm absorbance measurement value of the water soluble astaxanthin solution based thereon. […] Solubilization of lycopene and canthaxanthin was confirmed by filtration with a 0.45 μm filter.

CC1=C(/C=C/C(C)=C/C=C/C(C)=C/C=C/C=C(C)/C=C/C=C(C)/C=C/C2=C(C)C(=O)[C@@H](O)CC2(C)C)C(C)(C)C[C@H](O)C1=O [astaxanthin]
goblet cell count [1]: recovery in the goblet cell count was not observed | tear volume (relative to normal tear volume) (dry eye mouse model): increased only slightly

canthaxanthin
solubilization in aqueous solvent (remains in filtrate after filtration) [2]: Successful water-solubilization
